From US20170066795A1, “SOLID PRODRUG FORMS OF 2'-CHLORO-2'-METHYL URIDINE FOR HCV” (IDENIX PHARMACEUTICALS LLC, priority 2014, published 2017)
Read-outs that look alike come from different tables or passages of the source.

What was measured:
HCV = assay: Example 3 Parts I and II: antiviral activity across genotypes; assay type: in vivo; conditions: HCV-infected subjects, 50-300 mg QD x 7 days
Text: (§1) This part was a randomized, double-blind, placebo-controlled, parallel group study in treatment-naïve, Genotype 1 HCV-infected subjects. Thirty (30) subjects were randomized across the treatment arms specified below.
(§2) This part were a randomized, open-label, parallel group study in treatment-naïve, Genotype 2, 3, 4, 5 and 6 HCV-infected subjects. Thirty (30) subjects were randomized across the treatment arms specified below.
(§3) Dosing, sampling, and analyses for Parts I and II were made according to Tables A and B.

Genotype 1 HCV = assay: Example 3 Part I: Compound I QD x 7 days in treatment-naïve Genotype 1 HCV-infected subjects, viral load (HCV RNA); assay type: in vivo; conditions: 300 mg/day for 7 days
Description: as §1, §3
(§4) Compound I was provided as size 0, white, hard hydroxypropyl methylcellulose (HPMC) capsules for oral administration at 5 mg, 25 mg and 50 mg strengths. The same powder blend containing 33.3% weight/weight (w/w) Compound I, a diluent, and a disintegrant is used to fill the capsules for all dose strengths. Matching placebo capsules will also be provided. Storage conditions will be provided on the study drug container label.
(§5) Dosing occurred between approximately 08:00 AM and 10:00 AM on each dosing day. Water was permitted ad libitum except for 1 hour before and after dosing. Dosing was immediately followed by administration of 240 mL (8 oz.) of water. Meals and beverages served within 24 hours prior to and post dosing were xanthine-free and caffeine-free. Grapefruit and grapefruit juice were not allowed within 7 days before reporting to the clinic on Day −1 and through the end of the study.

[1] = Example 4 Group B: plasma pharmacokinetics in genotype 1 HCV-infected subjects (LC/MS/MS); conditions: human, in vivo, fasted; for AUC(0-inf) / Cmax / half-life: mean ± SD; for AUC(0-inf): read-out: AUC∞ of Compound I; for Cmax: read-out: Cmax of Compound I; for half-life: read-out: t1/2 of Compound I (converted); for Tmax: median, read-out: Tmax of Compound I
Description: (§6) Five sequential cohorts of 3 HCV-infected subjects (HCV) per cohort received under fasted conditions open-label Compound I at single ascending doses of 10, 25, 50, 150, and 300 mg (below, “Group B”).
Compound I was provided as size 0, white, hard hydroxypropyl methylcellulose (HPMC) capsules for oral administration at 5 mg, 25 mg, and 50 mg strengths. The same powder blend containing 33.3% weight/weight (w/w) Compound I, a diluent, and a disintegrant is used to fill the capsules for all dose strengths. Matching placebo capsules will also be provided. Storage conditions will be provided on the study drug container label.
(§7) For Groups A and B, dosing occurred between approximately 08:00 AM and 10:00 AM on each dosing day. Dosing was fasted for all subjects in Groups A and B. For fasted dosing, subjects observed a fasting period of approximately 10 hours prior to each dose and for an additional 4 hours post-dose.
Plasma samples were obtained up to 120 hours after dosing and the levels of Compound I and its Nucleoside metabolite were measured by using validated LC/MS/MS methodology. Plasma pharmacokinetic parameters were obtained by using non-compartmental analysis with parameters reported as mean±standard deviation (SD) except for Tmax where median (min-max) is shown.

genotype 2 or 3 HCV = assay: Example 3 Part II: Compound I QD x 7 days in treatment-naïve Genotype 2, 3, 4, 5 and 6 HCV-infected subjects, viral load (HCV RNA); assay type: in vivo; conditions: 300 mg/day for 7 days
Description: as §2, §3, §4, §5

[2] = Example 4 Group B: safety (adverse events) in genotype 1 HCV-infected subjects; assay type: in vivo, human
Description: as §6, §7
Safety measurements included clinical history, routine laboratory evaluation, physical examination, 12-lead ECG, vital signs, adverse event (AE) assessment.

[3] = Example 3: tolerability (clinical and laboratory abnormalities) in HCV-infected subjects; assay type: in vivo, human; conditions: 50-300 mg QD x 7 days
Text: as §1, §2, §3

Q: Which results are given for `CC(C)OC(=O)[C@@H](C)N[P@@](=O)(OC[C@H]1O[C@@H](n2ccc(=O)[nH]c2=O)[C@](C)(Cl)[C@@H]1O)Oc1ccccc1` [Compound I]?
A: antiviral activity across genotypes (HCV): potent pan-genotypic activity in a dose-dependent manner; response in genotype 1a versus genotype 1b HCV infection (Genotype 1 HCV): similar; mean maximal viral load reduction (Genotype 1 HCV; 8 genotype 1 HCV-infected patients): 4.2 logs; AUC(0-inf) ([1]; 10 mg single dose): 40 ± 12.6 ng·h/mL; Cmax ([1]; 10 mg single dose): 26.1 ± 11.9 ng/mL; half-life ([1]; 10 mg single dose): 1.47 ± 0.7 h; Tmax ([1]; 10 mg single dose): 0.5 h; AUC(0-inf) ([1]; 25 mg single dose): 140 ± 68.8 ng·h/mL; Cmax ([1]; 25 mg single dose): 68.4 ± 18.7 ng/mL; half-life ([1]; 25 mg single dose): 0.97 ± 0.29 h; Tmax ([1]; 25 mg single dose): 1 h; AUC(0-inf) ([1]; 50 mg single dose): 197 ± 40.1 ng·h/mL; Cmax ([1]; 50 mg single dose): 91.9 ± 10.7 ng/mL; half-life ([1]; 50 mg single dose): 1.19 ± 0.46 h; Tmax ([1]; 50 mg single dose): 1 h; AUC(0-inf) ([1]; 150 mg single dose): 664 ± 160 ng·h/mL; Cmax ([1]; 150 mg single dose): 297 ± 34 ng/mL; half-life ([1]; 150 mg single dose): 1.13 ± 0.29 h; Tmax ([1]; 150 mg single dose): 0.5 h; AUC(0-inf) ([1]; 300 mg single dose): 818 ± 256 ng·h/mL; Cmax ([1]; 300 mg single dose): 367 ± 537 ng/mL; half-life ([1]; 300 mg single dose): 1.58 ± 0.02 h; Tmax ([1]; 300 mg single dose): 1 h; response in genotype 2 versus genotype 3 HCV infection (genotype 2 or 3 HCV): similar; mean maximal viral load reduction (genotype 2 or 3 HCV; 10 genotype 2 or 3 HCV-infected patients): 4.3 logs; Adverse event: Constipation ([2]; 10 mg single dose (n = 3)): 0 n, %; Adverse event: Diarrhea ([2]; 10 mg single dose (n = 3)): 0 n, %; Adverse event: Dry mouth ([2]; 10 mg single dose (n = 3)): 0 n, %; Adverse event: Dry skin ([2]; 10 mg single dose (n = 3)): 0 n, %; Adverse event: Dysuria ([2]; 10 mg single dose (n = 3)): 0 n, %; Adverse event: Fatigue ([2]; 10 mg single dose (n = 3)): 0 n, %; Adverse event: Feces hard ([2]; 10 mg single dose (n = 3)): 0 n, %; Adverse event: Flatulence ([2]; 10 mg single dose (n = 3)): 0 n, %; Adverse event: Headache ([2]; 10 mg single dose (n = 3)): 0 n, %; Adverse event: Myalgia ([2]; 10 mg single dose (n = 3)): 1 (33.3) n, %; Adverse event: Neck pain ([2]; 10 mg single dose (n = 3)): 0 n, %; Adverse event: Pruritus ([2]; 10 mg single dose (n = 3)): 0 n, %; Adverse event: Pruritus generalized ([2]; 10 mg single dose (n = 3)): 0 n, %; Adverse event: Vessel puncture site bruise ([2]; 10 mg single dose (n = 3)): 0 n, %; Subjects with AE ([2]; 10 mg single dose (n = 3)): 1 (33.3) n, %; Adverse event: Constipation ([2]; 25 mg single dose (n = 3)): 1 (33.3) n, %; Adverse event: Diarrhea ([2]; 25 mg single dose (n = 3)): 0 n, %; Adverse event: Dry mouth ([2]; 25 mg single dose (n = 3)): 0 n, %; Adverse event: Dry skin ([2]; 25 mg single dose (n = 3)): 0 n, %; Adverse event: Dysuria ([2]; 25 mg single dose (n = 3)): 0 n, %; Adverse event: Fatigue ([2]; 25 mg single dose (n = 3)): 1 (33.3) n, %; Adverse event: Feces hard ([2]; 25 mg single dose (n = 3)): 0 n, %; Adverse event: Flatulence ([2]; 25 mg single dose (n = 3)): 1 (33.3) n, %; Adverse event: Headache ([2]; 25 mg single dose (n = 3)): 1 (33.3) n, %; Adverse event: Myalgia ([2]; 25 mg single dose (n = 3)): 0 n, %; Adverse event: Neck pain ([2]; 25 mg single dose (n = 3)): 1 (33.3) n, %; Adverse event: Pruritus ([2]; 25 mg single dose (n = 3)): 0 n, %; Adverse event: Pruritus generalized ([2]; 25 mg single dose (n = 3)): 0 n, %; Adverse event: Vessel puncture site bruise ([2]; 25 mg single dose (n = 3)): 0 n, %; Subjects with AE ([2]; 25 mg single dose (n = 3)): 2 (66.7) n, %; Adverse event: Constipation ([2]; 50 mg single dose (n = 3)): 0 n, %; Adverse event: Diarrhea ([2]; 50 mg single dose (n = 3)): 0 n, %; Adverse event: Dry mouth ([2]; 50 mg single dose (n = 3)): 0 n, %; Adverse event: Dry skin ([2]; 50 mg single dose (n = 3)): 0 n, %; Adverse event: Dysuria ([2]; 50 mg single dose (n = 3)): 1 (33.3) n, %; Adverse event: Fatigue ([2]; 50 mg single dose (n = 3)): 0 n, %; Adverse event: Feces hard ([2]; 50 mg single dose (n = 3)): 0 n, %; Adverse event: Flatulence ([2]; 50 mg single dose (n = 3)): 0 n, %; Adverse event: Headache ([2]; 50 mg single dose (n = 3)): 0 n, %; Adverse event: Myalgia ([2]; 50 mg single dose (n = 3)): 0 n, %; Adverse event: Neck pain ([2]; 50 mg single dose (n = 3)): 0 n, %; Adverse event: Pruritus ([2]; 50 mg single dose (n = 3)): 0 n, %; Adverse event: Pruritus generalized ([2]; 50 mg single dose (n = 3)): 0 n, %; Adverse event: Vessel puncture site bruise ([2]; 50 mg single dose (n = 3)): 0 n, %; Subjects with AE ([2]; 50 mg single dose (n = 3)): 1 (33.3) n, %; Adverse event: Constipation ([2]; 150 mg single dose (n = 3)): 0 n, %; Adverse event: Diarrhea ([2]; 150 mg single dose (n = 3)): 0 n, %; Adverse event: Dry mouth ([2]; 150 mg single dose (n = 3)): 1 (33.3) n, %; Adverse event: Dry skin ([2]; 150 mg single dose (n = 3)): 1 (33.3) n, %; Adverse event: Dysuria ([2]; 150 mg single dose (n = 3)): 0 n, %; Adverse event: Fatigue ([2]; 150 mg single dose (n = 3)): 1 (33.3) n, %; Adverse event: Feces hard ([2]; 150 mg single dose (n = 3)): 0 n, %; Adverse event: Flatulence ([2]; 150 mg single dose (n = 3)): 0 n, %; Adverse event: Headache ([2]; 150 mg single dose (n = 3)): 0 n, %; Adverse event: Myalgia ([2]; 150 mg single dose (n = 3)): 0 n, %; Adverse event: Neck pain ([2]; 150 mg single dose (n = 3)): 0 n, %; Adverse event: Pruritus ([2]; 150 mg single dose (n = 3)): 1 (33.3) n, %; Adverse event: Pruritus generalized ([2]; 150 mg single dose (n = 3)): 1 (33.3) n, %; Adverse event: Vessel puncture site bruise ([2]; 150 mg single dose (n = 3)): 0 n, %; Subjects with AE ([2]; 150 mg single dose (n = 3)): 2 (66.7) n, %; Adverse event: Constipation ([2]; 300 mg single dose (n = 3)): 0 n, %; Adverse event: Diarrhea ([2]; 300 mg single dose (n = 3)): 1 (33.3) n, %; Adverse event: Dry mouth ([2]; 300 mg single dose (n = 3)): 0 n, %; Adverse event: Dry skin ([2]; 300 mg single dose (n = 3)): 0 n, %; Adverse event: Dysuria ([2]; 300 mg single dose (n = 3)): 0 n, %; Adverse event: Fatigue ([2]; 300 mg single dose (n = 3)): 0 n, %; Adverse event: Feces hard ([2]; 300 mg single dose (n = 3)): 1 (33.3) n, %; Adverse event: Flatulence ([2]; 300 mg single dose (n = 3)): 0 n, %; Adverse event: Headache ([2]; 300 mg single dose (n = 3)): 0 n, %; Adverse event: Myalgia ([2]; 300 mg single dose (n = 3)): 0 n, %; Adverse event: Neck pain ([2]; 300 mg single dose (n = 3)): 0 n, %; Adverse event: Pruritus ([2]; 300 mg single dose (n = 3)): 0 n, %; Adverse event: Pruritus generalized ([2]; 300 mg single dose (n = 3)): 0 n, %; Adverse event: Vessel puncture site bruise ([2]; 300 mg single dose (n = 3)): 1 (33.3) n, %; Subjects with AE ([2]; 300 mg single dose (n = 3)): 2 (66.7) n, %; tolerability [3]: well-tolerated with no observed patterns of clinical or laboratory abnormalities
